Laboratory results from patent US7151195B2, “Phthalamide derivative, agricultural or horticultural insecticide, and method of use thereof” (Bayer CropScience LP, priority 2002, dated 2006).

How the values were obtained:
Type in all cases: in vivo
[1] = test system: Diamond Back Moth (Plutella xylostella); assay: Insecticidal test on diamond back moth (Test Example 1); conditions: Chinese cabbage seedling with eggs immersed about 30 seconds, hatched insects counted six days after immersion, 25° C.; for Test Example 1: insecticidal effect (mortality criterion): 50 ppm; for mortality at 50 ppm: Plutella xylostella, 144 h, read-out: Test Example 1: insecticidal effect (mortality criterion)
Experimental: Adult diamond back moths were released and allowed to oviposit on a Chinese cabbage seedling. Two days after the release, the seedling having the eggs deposited thereon was immersed for about 30 seconds in a liquid chemical prepared by diluting a preparation containing each compound listed in Tables 1 to 3 as an active ingredient to adjust the concentration to 50 ppm. After air-dryness, it was allowed to stand in a room thermostatted at 25° C. Six days after the immersion, the hatched insects were counted. The mortality was calculated according to the following equation and the insecticidal effect was judged according to the criterion shown below. The test was carried out with triplicate groups of 10 insects.

[2] = test system: Smaller Tea Tortrix (Adoxophyes sp.); assay: Insecticidal test on smaller tea tortrix (Test Example 3); conditions: 50 ppm; tea leaves immersed about 30 seconds; larvae; counted eight days after inoculation; 25° C., humidity 70%
Experimental: Tea leaves were immersed for about 30 seconds in a liquid chemical prepared by diluting a preparation containing each compound listed in Tables 1 to 3 as an active ingredient to adjust the concentration to 50 ppm. After air-dryness, the tea leaves were placed in a plastic Petri dish with a diameter of 9 cm and inoculated with larvae of smaller tea tortrix, after which the dish was allowed to stand in a room thermostatted at 25° C. and having a humidity of 70%. Eight days after the inoculation, the dead and alive larvae were counted and, the mortality was calculated according to the equation shown in Test Example 2, and the insecticidal effect was judged according to the criterion shown in Test Example 1. The test was carried out with triplicate groups of 10 insects.

[3] = test system: Common Cutworm (Spodoptera litura); assay: Insecticidal test on common cutworm (Test Example 2); conditions: cabbage leaf immersed about 30 seconds, second-instar larvae, counted eight days after inoculation, 25° C.; for Test Example 2: insecticidal effect (mortality criterion): 50 ppm; for mortality at 50 ppm: Spodoptera litura, 192 h, read-out: Test Example 2: insecticidal effect (mortality criterion)
Experimental: A piece of cabbage leaf (cultivar; Shikidori) was immersed for about 30 seconds in a liquid chemical prepared by diluting a preparation containing each compound listed in Tables 1 to 3 as an active ingredient to adjust the concentration to 50 ppm. After air-dryness, it was placed in a plastic Petri dish with a diameter of 9 cm and inoculated with second-instar larvae of common cutworm, after which the dish was closed and then allowed to stand in a room thermostatted at 25° C. Eight days after the inoculation, the dead and alive were counted. The mortality was calculated according to the following equation and the insecticidal effect was judged according to the criterion shown in Test Example 1. The test was carried out with triplicate groups of 10 insects.

| SMILES | Test Example 1: insecticidal effect (mortality criterion) [1] | Test Example 3: insecticidal effect (mortality criterion) [2] | Test Example 2: insecticidal effect (mortality criterion) [3] | mortality at 50 ppm [1] | mortality at 50 ppm [3] |
| --- | --- | --- | --- | --- | --- |
| CSCC(C)NC(=O)c1c(I)cccc1C(=O)Nc1ccc(S(F)(F)(F)(F)F)cc1C (stereo not drawn) [1-290] | A (Mortality 100%) | A (Mortality 100%) | A (Mortality 100%) |  |  |
| Cc1cc(S(F)(F)(F)(F)F)ccc1NC(=O)c1cccc(I)c1C(=O)NC(C)CS(C)(=O)=O (stereo not drawn) [1-292] | A (Mortality 100%) | A (Mortality 100%) | A (Mortality 100%) |  |  |
| CSCC(C)(C)NC(=O)c1c(I)cccc1C(=O)Nc1ccc(S(F)(F)(F)(F)F)cc1C [1-296] | A (Mortality 100%) | A (Mortality 100%) | A (Mortality 100%) |  |  |
| Cc1cc(S(F)(F)(F)(F)F)ccc1NC(=O)c1cccc(I)c1C(=O)NC(C)(C)C[S+](C)[O-] (stereo not drawn) [1-297] | A (Mortality 100%) | A (Mortality 100%) | A (Mortality 100%) |  |  |
| Cc1cc(S(F)(F)(F)(F)F)ccc1NC(=O)c1cccc(I)c1C(=O)NC(C)(C)CS(C)(=O)=O [1-298] | A (Mortality 100%) | A (Mortality 100%) | A (Mortality 100%) |  |  |
| CSCC(C)(C)NC(=O)c1c(I)cccc1C(=O)Nc1ccc(S(F)(F)(F)(F)F)cc1Cl [1-372, N^1-(2-chloro-4-pentafluorosulfanylphenyl)-N^2-(1,1-dimethyl-2-methylthioethyl)-3-iodophthalamide] |  | A (Mortality 100%) |  | 100% | 100% |
| CC(C)(CS(C)(=O)=O)NC(=O)c1c(I)cccc1C(=O)Nc1ccc(S(F)(F)(F)(F)F)cc1Cl [1-374, N^1-(2-chloro-4-pentafluorosulfanylphenyl)-N^2-(1,1-dimethyl-2-methylsulfonylethyl)-3-iodophthalamide] |  | A (Mortality 100%) |  | 100% | 100% |
| CSCC(C)(C)NC(=O)c1c(I)cccc1C(=O)Nc1ccc(S(F)(F)(F)(F)F)cc1 [1-458] | A (Mortality 100%) | A (Mortality 100%) | A (Mortality 100%) |  |  |
| CCN(C(=O)c1cccc(I)c1C(=O)NC(C)(C)CSC)c1ccc(S(F)(F)(F)(F)F)cc1 [2-22] | A (Mortality 100%) | A (Mortality 100%) | A (Mortality 100%) |  |  |
| CCN(C(=O)c1cccc(I)c1C(=O)NC(C)(C)C[S+](C)[O-])c1ccc(S(F)(F)(F)(F)F)cc1 (stereo not drawn) [2-23] | A (Mortality 100%) | E (Mortality 49% or less) | A (Mortality 100%) |  |  |
| CCN(C(=O)c1cccc(I)c1C(=O)NC(C)(C)CS(C)(=O)=O)c1ccc(S(F)(F)(F)(F)F)cc1 [2-24] | A (Mortality 100%) | A (Mortality 100%) | A (Mortality 100%) |  |  |
| CSCC(C)(C)NC(=O)c1c(I)cccc1C(=O)Nc1cccc(S(F)(F)(F)(F)F)c1 [3-5] | A (Mortality 100%) | A (Mortality 100%) | E (Mortality 49% or less) |  |  |
| C[S+]([O-])CC(C)(C)NC(=O)c1c(I)cccc1C(=O)Nc1cccc(S(F)(F)(F)(F)F)c1 (stereo not drawn) [3-6] | A (Mortality 100%) | E (Mortality 49% or less) | D (Mortality 79–50%) |  |  |
| CC(C)(CS(C)(=O)=O)NC(=O)c1c(I)cccc1C(=O)Nc1cccc(S(F)(F)(F)(F)F)c1 [3-7] | A (Mortality 100%) | A (Mortality 100%) | A (Mortality 100%) |  |  |
| CSCC(C)(C)NC(=O)c1c(I)cccc1C(=O)Nc1cccc(S(F)(F)(F)(F)F)c1Cl [3-24] | A (Mortality 100%) | A (Mortality 100%) | A (Mortality 100%) |  |  |
| CC(C)(CS(C)(=O)=O)NC(=O)c1c(I)cccc1C(=O)Nc1cccc(S(F)(F)(F)(F)F)c1Cl [3-26] | A (Mortality 100%) | A (Mortality 100%) | A (Mortality 100%) |  |  |
